Experiments:
BRAF = molecular target: T1, BRAF (Homo sapiens, UniProt P15056); experiment: BRAF kinase activity assay (ADP-Glo); assay type: biochemical; conditions: Table 3; 10 μM ATP, kinase-dead MEK1 substrate
T1 construct: GST; purchased Millipore Sigma B4062-10UG
Protocol: (§1) Compound preparation: solid samples of each substance in 1dram vials were suspended in DMSO (Fisher Scientific) at a stock concentration of 20 mM. Stocks were kept at −20° C. and protected from light. If solubility of the compound at 20 mM appeared to be an issue, the initial concentration of the DMSO stock was changed to 10 mM or 5 mM.
(§2) In vitro enzymatic reactions were used for evaluating compounds intrinsic activity against BRAF, CRAF and ARAF. For BRAF and CRAF, 0.375 nM of purified GST-tagged kinases (cat. No. B4062-10UG and cat. No. R1656-10UG respectively from Millipore Sigma) were incubated with 75 nM of kinase-dead MEK1 substrate (cat. No. 40075; BPS Bioscience) in the presence of 10 μM of Ultrapure ATP (cat. No. V9102; Promega; part V915A) with and without the test compound in a buffer containing 50 mM HEPES pH 7.5, 10 mM MgCl2, 1 mM EDTA, 0.01% Brij-35 and 2 mM DTT. Separate reactions were performed with the MEK1 substrate and ATP as a blank control. ARAF kinase reactions were rigorously the same with the exception that kinase concentration was raised to 3.75 nM (cat. No. 1768-0000-1; Reaction Biology).
(§3) For compound treatment, 5 μL/well of test substance solution are placed in a 384-well proxyplate (Perkin Elmer) and mixed with 2× concentrated kinase reactions. The dilution series is selected so that nine concentrations cover a range from 100 nM to 0.01 nM. […] The final concentration of DMSO in the assay is set at 0.05%.
(§4) BRAF and CRAF kinase reactions were carried out for a total of 2 hours at 30° C. and then stopped by 1/2 dilution in ADP-Glo Reagent (cat. No. V9102; Promega; part V912C). Reactions were then incubated for 1 h at room temperature before addition of one volume of Kinase Detection Reagent (cat. No. V9102; Promega; part V917A). Plates were then equilibrated at room temperature for 30 minutes before detection of luminescence on a Synergy Neo2 plate reader (Biotek). The effect of each compound dilution on BRAF and CRAF kinase activity was expressed as % inhibition and calculated as follows. First, the internal 100% inhibition control (average of luminescence in kinase reactions comprising kinase dead MEK1 substrate alone) was subtracted from each data point. The average of DMSO (vehicle) controls (set as 0% inhibition) was established and used to calculate % inhibition:
(§5) IC50 values were obtained by plotting the kinase inhibition values and fitting the dose-activity curves using a log(agonist) versus response—variable slope (four parameters) function using either GraphPadPrism (V7.0) or Dotmatics Screening Ultra platform. Standards included in the ARAF kinase assay were Belvarafenib (MedChem Express cat. No. HY-109080; CAS No. 1446113-23-0), LXH254 (MedChem Express cat. No. HY-112089; CAS No. 1800398-38-2) and BGB283 (cat. No. HY-18957; CAS No. 1446090-79-4).

pERK, HCT116 cells = experiment: Phospho-ERK inhibition, AlphaLISA p-ERK 1/2, HCT-116; assay type: cell-based, human; conditions: Table 3; for IC50: HCT116 cells (KRAS G13D), 1 h treatment; for HCT116 pERK (Ymin %): lowest % inhibition value of the pERK IC50 curve, above −20% = no paradoxical induction
Protocol: All cancer cell lines (A375, A101D, A2058, RKO, HT29 SK-MEL 30, IPC298, HepG2, HCT-116, Lovo, SW620, SW480, NCI-H358, NCI-H2122, Calu-6, NCIH2087, NCIH1755, NCIH1666 and Mewo) were obtained from ATCC and cultured in RPM1-1640 medium (Gibco) supplemented with 5% heat inactivated fetal bovine serum (FBS, Wisent) at 37° C. under 5% CO2. Cells were maintained in T175 flasks (Greiner). They were passaged by removing the culture medium, washing once in 10 mL of room temperature Phosphate Buffered Saline (PBS; Wisent) and incubating at 37° C. with 2 mL of 0.05% Trypsin (Thermo-Fisher). Trypsin was then inactivated by adding complete growth medium and the cells were then replated in a T175 culture dish at the appropriate dilution. All cell lines were routinely tested for mycoplasma contamination. Tissue type and mutational status of each cell line can be found in Table B.
(c) Measurement of Phospho-ERK Inhibition in Cultivated Human Cancer Cell Lines by the AlphaLISA® SureFire® Ultra™ p-ERK 1/2 (Thr2O2/Tyr204)
AlphaLISA® SureFire® Ultra™ p-ERK 1/2 (Thr202/Tyr204) analysis was conducted on cells plated in 100 μL of complete RPMI-1640 growth medium in 96-well flat-bottomed transparent dishes (Costar) at a density indicated in Table C. Cells were maintained overnight at 37° C. under 5% CO2 before treatment with compounds' dilution series for one hour. The cell density in cells/cm^2 corresponds to cell number divided by the area of one well of a 96-well plate (0.143 cm^2).
In a dilution series 100 μL/well of test substance dilution prepared in complete RPMI-1640 growth media was added to the cells. The dilution series is selected so that ten concentrations cover a range from 10 μM to 0.33 nM. If necessary, the initial concentration of 10 μM is increased to 100 μM or lowered to 1 μM (as in the case of A375 and H1666 cells, which are generally more sensitive to the compounds) and further dilution is carried out accordingly. The final concentration of DMSO in the assay is set at 0.5%.
After treatment, media was removed, and cells were lysed in 50 μL of 1× AlphaScreen Ultra Lysis Buffer (Perkin Elmer). The AlphaLISA® SureFire® Ultra™ p-ERK 1/2 (Thr202/Tyr204) (PerkinElmer) reactions were performed with 5 μL of cell lysate according to the manufacturer's specifications in 384-well proxyplates (Perkin Elmer) followed by overnight incubation of the reactions at room temperature in a humidified chamber. After completion of the reactions, the signals were recorded on an EnVision plate reader (Perkin Elmer) using built in AlphaLISA® settings.
The effect of each compound dilution on the pERK signal was expressed in % inhibition and calculated as follows. An internal 100% inhibition control (1 μM trametinib, cat. No. HY-10999; MedChem Express; CAS No. 871700-17-3) was included in each plate and used as a measure of pERK background. First, the value obtained for trametinib was subtracted from each data point. The average of DMSO (vehicle) controls (set as 0% inhibition) was established and used to calculate % inhibition:
The ability of each compound to inhibit pERK signal was expressed as an IC50 value obtained by plotting the inhibition values for each data point of a dilution series and fitting the obtained curves using a log(agonist) versus response—variable slope (four parameters) function using GraphPadPrism (V7.0) or Dotmatics Screening Ultra platform.
When present, paradoxical pERK induction is inferred from the negative % inhibition values observed in the pERK IC50 curves of a compound.

CRAF = molecular target: T2, CRAF (Homo sapiens, UniProt P04049); experiment: CRAF kinase activity assay (ADP-Glo); assay type: biochemical; conditions: Table 3; 10 μM ATP, kinase-dead MEK1 substrate
T2 construct: fused on or other part: GST tag (N-terminal according to the vendor's product)
T2 sequence (P04049 whole entry Y340E/Y341E, form open, the tested form may be a part): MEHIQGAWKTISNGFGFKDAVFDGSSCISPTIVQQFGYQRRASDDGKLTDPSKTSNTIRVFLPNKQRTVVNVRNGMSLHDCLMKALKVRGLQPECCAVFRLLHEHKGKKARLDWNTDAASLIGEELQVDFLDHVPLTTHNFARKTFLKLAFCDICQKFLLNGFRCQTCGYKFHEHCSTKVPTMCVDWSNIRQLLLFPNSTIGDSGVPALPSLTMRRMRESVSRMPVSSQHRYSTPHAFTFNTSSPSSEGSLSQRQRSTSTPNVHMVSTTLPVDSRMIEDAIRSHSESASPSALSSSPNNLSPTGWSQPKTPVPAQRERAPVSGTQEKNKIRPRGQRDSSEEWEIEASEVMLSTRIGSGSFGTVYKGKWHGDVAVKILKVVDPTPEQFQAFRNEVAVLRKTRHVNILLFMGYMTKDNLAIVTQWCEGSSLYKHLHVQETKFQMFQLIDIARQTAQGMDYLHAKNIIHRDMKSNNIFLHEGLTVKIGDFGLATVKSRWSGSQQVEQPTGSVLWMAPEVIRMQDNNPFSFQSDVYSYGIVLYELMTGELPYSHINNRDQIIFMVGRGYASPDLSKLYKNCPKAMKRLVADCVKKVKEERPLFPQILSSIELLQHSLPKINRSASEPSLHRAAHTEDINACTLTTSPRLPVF
Protocol: as §1, §2, §3, §4, §5

T1 sequence (P15056 whole entry): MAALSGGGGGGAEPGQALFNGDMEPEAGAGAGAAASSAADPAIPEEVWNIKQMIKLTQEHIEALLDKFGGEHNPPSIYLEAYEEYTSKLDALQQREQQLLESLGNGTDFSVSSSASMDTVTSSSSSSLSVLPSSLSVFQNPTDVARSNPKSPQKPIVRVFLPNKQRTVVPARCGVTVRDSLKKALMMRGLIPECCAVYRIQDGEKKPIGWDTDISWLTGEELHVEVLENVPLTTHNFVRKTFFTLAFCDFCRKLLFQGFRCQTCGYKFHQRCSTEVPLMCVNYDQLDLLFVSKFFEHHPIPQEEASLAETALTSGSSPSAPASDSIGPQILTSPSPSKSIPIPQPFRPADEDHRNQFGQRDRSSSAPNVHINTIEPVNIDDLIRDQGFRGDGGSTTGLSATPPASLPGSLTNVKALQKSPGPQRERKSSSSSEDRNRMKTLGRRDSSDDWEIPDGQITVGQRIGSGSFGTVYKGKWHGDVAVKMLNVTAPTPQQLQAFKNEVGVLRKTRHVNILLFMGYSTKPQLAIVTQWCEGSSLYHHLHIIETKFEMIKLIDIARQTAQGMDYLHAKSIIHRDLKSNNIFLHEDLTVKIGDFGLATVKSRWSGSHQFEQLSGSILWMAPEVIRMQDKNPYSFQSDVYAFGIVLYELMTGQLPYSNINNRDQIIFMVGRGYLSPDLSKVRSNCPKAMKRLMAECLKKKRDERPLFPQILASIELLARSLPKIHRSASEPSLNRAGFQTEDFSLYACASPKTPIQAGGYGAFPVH

IC50 (BRAF) [nM] | IC50 (pERK, HCT116 cells) [nM] | IC50 (CRAF) [nM] | IC50 (pERK, HCT116 cells; Homo sapiens, HCT-116) [nM] | SMILES | HCT116 pERK (Ymin %) (pERK, HCT116 cells) [%]
< 1 | < 500 | < 10 | – | O=S(=O)(Nc1ccc(F)c(Nc2ncnc3sc(-n4cnc5c(F)cccc54)nc23)c1F)c1cccc(Cl)c1Cl [Example 18] | 0
1 to 10 | 500 to 1000 | < 10 | – | O=S(=O)(Nc1ccc(F)c(Nc2ncnc3sc(-n4cnc5cc(F)c(F)cc54)nc23)c1F)c1cccc(Cl)c1Cl [Example 19] | −14
1 to 10 | < 500 | 10 to 50 | – | Cc1cc2ncn(-c3nc4c(Nc5c(F)ccc(NS(=O)(=O)c6cccc(Cl)c6Cl)c5F)ncnc4s3)c2cc1C [Example 20] | −12
> 10 | 1000 to 10000 | 10 to 50 | – | O=S(=O)(Nc1ccc(F)c(Nc2ncnc3sc(-n4nnc5ccccc54)nc23)c1F)c1cccc(Cl)c1Cl [Example 21] | −4
> 10 | 1000 to 10000 | > 50 | – | Cc1c(F)cccc1S(=O)(=O)Nc1ccc(F)c(Nc2ncnc3sc(-n4nnc5ccccc54)nc23)c1F [Example 22] | −8
> 10 | – | > 50 | 1000 to 10000 | Cc1c(F)cccc1S(=O)(=O)Nc1ccc(F)c(Nc2ncnc3sc(-n4nc(C(=O)N(C)Cc5cccnc5)c5ccccc54)nc23)c1F [Example 23] | –
> 10 | 500 to 1000 | 10 to 50 | – | Cc1c(F)cccc1S(=O)(=O)Nc1ccc(F)c(Nc2ncnc3sc(-n4nc(C(=O)NCc5cccnc5)c5ccccc54)nc23)c1F [Example 24] | 2
> 10 | 1000 to 10000 | > 50 | – | Cc1c(F)cccc1S(=O)(=O)Nc1ccc(F)c(Nc2ncnc3sc(-n4nc(C(=O)N(C)CCc5ccccn5)c5ccccc54)nc23)c1F [Example 25] | 2
> 10 | 1000 to 10000 | > 50 | – | COCCN(C)C(=O)c1nn(-c2nc3c(Nc4c(F)ccc(NS(=O)(=O)c5cccc(F)c5C)c4F)ncnc3s2)c2ccccc12 [Example 26] | −13
1 to 10 | 500 to 1000 | 10 to 50 | – | Cc1c(F)cccc1S(=O)(=O)Nc1ccc(F)c(Nc2ncnc3sc(-n4nc(C(=O)N(C)CCN(C)C)c5ccccc54)nc23)c1F [Example 27] | −3
1 to 10 | – | 10 to 50 | < 500 | Cc1c(F)cccc1S(=O)(=O)Nc1ccc(F)c(Nc2ncnc3sc(-n4cc(C(=O)N(C)CCc5ccccn5)c5ccccc54)nc23)c1F [Example 28] | –
> 10 | 500 to 1000 | > 50 | – | Cc1c(F)cccc1S(=O)(=O)Nc1ccc(F)c(Nc2ncnc3sc(-n4cc(C(=O)NCc5cccnc5)c5ccccc54)nc23)c1F [Example 29] | 5
1 to 10 | < 500 | 10 to 50 | – | Cc1c(F)cccc1S(=O)(=O)Nc1ccc(F)c(Nc2ncnc3sc(-n4cc(C(=O)N(C)Cc5ccncc5)c5ccccc54)nc23)c1F [Example 30] | −3
1 to 10 | 500 to 1000 | < 10 | – | Cc1c(F)cccc1S(=O)(=O)Nc1ccc(F)c(Nc2ncnc3sc(-n4cc(C(=O)N(C)Cc5cccnc5)c5ccccc54)nc23)c1F [Example 31] | 7
1 to 10 | 1000 to 10000 | 10 to 50 | – | Cc1c(F)cccc1S(=O)(=O)Nc1ccc(F)c(Nc2ncnc3sc(-n4nc(C(=O)N5CCC(CO)C5)c5ccccc54)nc23)c1F (stereo not shown) [Example 32] | −13
< 1 | < 500 | < 10 | – | Cc1c(F)cccc1S(=O)(=O)Nc1ccc(F)c(Nc2ncnc3sc(-n4cc(C(=O)N5CCC(CO)C5)c5ccccc54)nc23)c1F (stereo not shown) [Example 33] | −7
> 10 | 1000 to 10000 | 10 to 50 | – | Cc1c(F)cccc1S(=O)(=O)Nc1ccc(F)c(Nc2ncnc3sc(-n4nc(C(=O)N5C6CCC5COC6)c5ccccc54)nc23)c1F [Example 34] | −13
1 to 10 | < 500 | < 10 | – | Cc1c(F)cccc1S(=O)(=O)Nc1ccc(F)c(Nc2ncnc3sc(-n4cnc5c(F)cccc54)nc23)c1F [Example 35] | −8
1 to 10 | 1000 to 10000 | 10 to 50 | – | Cc1c(Cl)cccc1S(=O)(=O)Nc1ccc(F)c(Nc2ncnc3sc(-n4cnc5c(F)cccc54)nc23)c1F [Example 36] | −13
1 to 10 | < 500 | < 10 | – | O=S(=O)(Nc1ccc(F)c(Nc2ncnc3sc(-n4cnc5ccccc54)nc23)c1F)c1ccccc1Cl [Example 37] | −11
1 to 10 | 500 to 1000 | < 10 | – | O=S(=O)(Nc1ccc(F)c(Nc2ncnc3sc(-n4cnc5c(F)cccc54)nc23)c1F)c1ccccc1Cl [Example 38] | −6
